Results published in ChEMBL document CHEMBL1201862, “PubChem BioAssay data set” (2004).
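Dose response: 5 concentrations. Exposure: 48 h. Format: 96-well plates. Endpoint: linear interpolation; highest concentration if not reached. At the GI50, growth is halved.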 The source made the active and inactive calls. Rule as the data show it: active = GI50 up to about 1.1 µM and inactive = higher.

Legend:
Test in all cases: NCI tumour cell line growth inhibition, 48 h
[1] = test system: ACHN
[2] = test system: LOX IMVI
[3] = test system: CCRF-CEM
[4] = test system: SF-295
[5] = test system: SK-MEL-2
[6] = test system: SN12C
[7] = test system: TK-10
[8] = test system: OVCAR-5
[9] = test system: A549
[10] = test system: OVCAR-3
[11] = test system: CAKI-1
[12] = test system: EKVX
[13] = test system: SW-620
[14] = test system: RPMI-8226
[15] = test system: KM12
[16] = test system: SF-539
[17] = test system: OVCAR-8
[18] = test system: SF-268
[19] = test system: MOLT-4
[20] = test system: NCI-H226
[21] = test system: M19-MEL
[22] = test system: XF498
[23] = test system: UACC-257
[24] = test system: M14
[25] = test system: OVCAR-4
[26] = test system: SK-OV-3
[27] = test system: KM-20L2
[28] = test system: IGROV-1
[29] = test system: DMS-114
[30] = test system: NCI-H522
[31] = test system: RXF 393
[32] = test system: SK-MEL-28
[33] = test system: UACC-62
[34] = test system: SNB-19
[35] = test system: 786-0
[36] = test system: HCT-116
[37] = test system: HT-29
[38] = test system: NCI-H460
[39] = test system: SNB-78
[40] = test system: SR
[41] = test system: HOP-62
[42] = test system: Malme-3M
[43] = test system: DMS-273
[44] = test system: UO-31
[45] = test system: DLD-1
[46] = test system: HCC 2998
[47] = test system: COLO 205
[48] = test system: U-251
[49] = test system: NCI-H23
[50] = test system: HL-60
[51] = test system: K562
[52] = test system: SNB-75
[53] = test system: HOP-18
[54] = test system: LXFL 529
[55] = test system: SK-MEL-5
[56] = test system: HOP-92
[57] = test system: A498

Measured: GI50

OCC(O)C(O)C(O)c1nn(-c2ccccc2)c2nc3cc(Cl)c(Cl)cc3nc12 (configuration not stated)
inactive: [1] 25.1 µM | [2] 36.5 µM | [3] 40.5 µM | [4] 56.5 µM | [5] 33 µM | [6] 41.9 µM | [7] 36.1 µM | [8] 28.6 µM | [9] 26.7 µM | [10] 40.3 µM | [11] 20 µM | [12] 51.6 µM | [13] 88.9 µM | [14] 25.4 µM | [15] > 10 µM | [16] 18.6 µM | [17] 70.8 µM | [18] 55.1 µM | [19] 24.5 µM | [20] 36.5 µM | [21] 49.1 µM | [22] 23.4 µM | [23] 63.1 µM | [24] 17.7 µM | [25] 35.6 µM | [26] > 100 µM | [27] 37.2 µM | [28] 39.4 µM | [29] 31.6 µM | [30] 27.5 µM | [31] 19.9 µM | [32] 48 µM | [33] 28.8 µM | [34] 74.6 µM | [35] 32 µM | [36] 54.5 µM | [37] 24.4 µM | [38] 44.1 µM | [39] 54.1 µM | [40] 33.9 µM | [41] 42.1 µM | [42] 19.3 µM | [43] 39.8 µM | [44] 37.2 µM | [45] 30.1 µM | [46] 32.9 µM | [47] 44.1 µM | [48] 70.5 µM | [49] 49.8 µM | [50] 27 µM | [51] 18.6 µM | [52] 20.3 µM | [53] 67.5 µM | [54] 57.5 µM

CC(=O)OC1C2CCC1C1C2C2(Cl)C(Cl)=C(Cl)C1(Cl)C2(Cl)Cl (configuration not stated)
inactive: [1] 12.2 µM | [2] 15.2 µM | [4] 11.3 µM | [5] 10.2 µM | [6] 15.1 µM | [7] 15.3 µM | [8] 11.1 µM | [9] 10.5 µM | [10] 11.4 µM | [11] 13.8 µM | [12] 11.3 µM | [13] 14.5 µM | [14] 6.05 µM | [15] 13 µM | [16] 16.6 µM | [17] 15.4 µM | [18] 17.7 µM | [19] 11 µM | [20] 13 µM | [55] 13 µM | [56] 11.2 µM | [21] 13.3 µM | [22] 11 µM | [23] 13.2 µM | [24] 12.4 µM | [25] 19.7 µM | [26] 16 µM | [27] 10.1 µM | [28] 16.4 µM | [29] 12.6 µM | [30] 12.3 µM | [31] 15.1 µM | [32] 18.2 µM | [33] 12.4 µM | [34] 15.1 µM | [35] 14.1 µM | [36] 11.2 µM | [37] 12.3 µM | [38] 14.3 µM | [39] 17.4 µM | [40] 9.95 µM | [41] 15.5 µM | [42] 12.6 µM | [43] 12.2 µM | [44] 12.5 µM | [45] 15.1 µM | [47] 15 µM | [48] 13.3 µM | [49] 12.2 µM | [57] 13.9 µM | [52] 14.7 µM | [53] 18.9 µM | [54] 12.5 µM
